Legend:
[1] = set-up: species or system healthy male adults; conditions: in vivo
Procedure: A nasally administrable composition in powdery form was prepared by formulating salmon calcitonin as a physiologically active peptide at the rate of 200 MRC (IU) per 25 mg with hydroxyapatite as a carrier.
(§1) The resulting composition was nasally administered once at the dose of 25 mg to six healthy male adults and the blood (2.5 ml) was collected from each of the tested adults prior to administration and then at 5, 10, 15, 20, 30, 45, 60, 90, 120 and 180 minutes after administration. The concentration of the salmon calcitonin in each of the collected blood samples was assayed with a standard RIA assay kit.

[2] = set-up: species or system healthy male adults; conditions: in vivo; remark: listed apart in the source
Procedure: A nasally administrable composition in powdery form was prepared by formulating salmon calcitonin as a physiologically active peptide at the rate of 200 MRC (IU) per 25 mg with hydroxyapatite as a carrier having a mean particle size ranging from 40 to 45 μm.
as §1

[3] = test system: blood sugar; assay: Average fall of the blood sugar in rabbits after insulin administration; assay type: in vivo, New Zealand rabbits; conditions: S.C., 2 IU/rabbit
Procedure: The resulting composition was nasally administered once to six male New Zealand rabbits. The average fall of the blood sugar was measured and represented in percentage (%) at 0, 15, 30, 60, 120 and 180 minutes after administration. For comparison, 2 (IU)/rabbit of insulin was administered subcutaneously to six male New Zealand rabbits and the average fall of the blood sugar was measured and represented in […] (%) at 0, 60, 120, 240 and 360 minutes after administration.

Substance | absorption of calcitonin through the nasal cavity (in words) [1] | absorption of calcitonin (in words) [2] | Average fall of the blood sugar ([3]; 0 min) [%] | Average fall of the blood sugar ([3]; 60 min) [%] | Average fall of the blood sugar ([3]; 120 min) [%] | Average fall of the blood sugar ([3]; 240 min) [%] | Average fall of the blood sugar ([3]; 360 min) [%]
hydroxyapatite | effective to attain better absorption of calcitonin through the nasal cavity | effective to attain better absorption of calcitonin |  |  |  |  | 
insulin [Comparison] |  |  | 100 | 57 | 56 | 84 | 94

— patent publication US5574006A, “Nasally administrable peptide compositions on hydroxyapatite carriers” (Dott Research Laboratory, priority 1993, dated 1996)
